Data reported in patent US20190110473A1, “SYNERGISTIC WEED CONTROL FROM APPLICATIONS OF PYRIDINE CARBOXYLIC ACID HERBICIDES AND PHOTOSYSTEM II INHIBITORS” (Dow AgroSciences LLC, priority 2017, published 2019).

What was measured:
Assay in all cases: Greenhouse herbicidal activity, visual weed control
Type in all cases: in vivo
Conditions in all cases: 20-22 d
[1] = system: Canada thistle (Cirsium arvense; CIRAR)
Method: (§1) Seeds of the desired test plant species were planted in Sun Gro MetroMix® 306 planting mixture, which typically has a pH of 6.0 to 6.8 and an organic matter content of about 30 percent, in plastic pots with a surface area of 103.2 square centimeters (cm^2). When required to ensure good germination and healthy plants, a fungicide treatment and/or other chemical or physical treatment was applied. The plants were grown for 7-36 days (d) in a greenhouse with an approximate 14 hour (h) photoperiod which was maintained at about 18° C. during the day and 17° C. during the night. Nutrients and water were added on a regular basis and supplemental lighting was provided with overhead metal halide 1000-Watt lamps as necessary. The plants were employed for testing when they reached the second or third true leaf stage.
(§2) An aliquot of formulated Compound 1 (100 grams acid equivalent per liter (g ae/L); emusifiable concentrate (EC)) was placed in a 25 mL glass vial and diluted in a volume of 1.25% (volume per volume (v/v)) aqueous methylated soybean seed oil to obtain a stock solution. The concentrated stock solutions were diluted with an aqueous mixture of 1.25% v/v of aqueous methylated soybean seed oil to provide the appropriate application rates. Compound requirements are based upon a 12 mL application volume at a rate of 187 liters per hectare (L/ha). Compositions of Compound 1 and the photosystem II inhibitor herbicides (propanil, amicarbazone, pyridafol, desmedipham, terbacil, or bromacil) were prepared by adding aliquot or weighted amount of the photosystem II inhibitor into the diluted solutions of Compound 1. The compositions of Compound 1 and the photosystem II inhibitor herbicides were applied to the plant material with an overhead Mandel track sprayer equipped with 8002E nozzles calibrated to deliver 187 L/ha over an application area of 0.503 square meters (m^2) at a spray height of 18 inches (43 centimeters (cm)) above average plant canopy. Control plants were sprayed in the same manner with the solvent blank.
(§3) The efficacy of each of these herbicidal compositions was then evaluated against rapeseed (Brassica napus; BRSNN), shepherd's purse (Capsella bursa-pastoris; CAPBP), common chickweed (Stellaria media; STEME), scentless mayweed (Matricaria inodora; MATIN), corn chamomile (Anthemis arvensis; ANTAR), wild chamomile (Matricaria chamomilla; MATCH), Persian speedwell (Veronica persica; VERPE), ivyleaf speedwell (Veronica hederifolia; VERHE), corn poppy (Papaver rhoeas; PAPRH), kochia (Kochia scoparia; KCHSC), and Canada thistle (Cirsium arvense; CIRAR). The treated plants and control plants were placed in a greenhouse as described above and watered by subirrigation to prevent washoff of the test compounds. After 20-22 d, the condition of the test plants as compared with that of the control plants was determined visually and scored on a scale of 0 to 100 percent where 0 corresponds to no injury and 100 corresponds to complete kill. […]
(§4) The values reported are means.

[2] = system: Persian speedwell (Veronica persica; VERPE)
Method: as §1, §2, §3, §4

[3] = system: common chickweed (Stellaria media; STEME)
Method: as §1, §2, §3, §4

[4] = system: corn chamomile (Anthemis arvensis; ANTAR)
Method: as §1, §2, §3, §4

[5] = system: corn poppy (Papaver rhoeas; PAPRH)
Method: as §1, §2, §3, §4

[6] = system: ivyleaf speedwell (Veronica hederifolia; VERHE)
Method: as §1, §2, §3, §4

[7] = system: kochia (Kochia scoparia; KCHSC)
Method: as §1, §2, §3, §4

[8] = system: rapeseed (Brassica napus; BRSNN)
Method: as §1, §2, §3, §4

[9] = system: scentless mayweed (Matricaria inodora; MATIN)
Method: as §1, §2, §3, §4

[10] = system: shepherd's purse (Capsella bursa-pastoris; CAPBP)
Method: as §1, §2, §3, §4

[11] = system: wild chamomile (Matricaria chamomilla; MATCH)
Method: as §1, §2, §3, §4

CC(C)c1nn(C(=O)NC(C)(C)C)c(=O)n1N [Amicarbazone, amicarbazone]
Obs (% visual control) ([1]; Amicarbazone 300 g/ha alone): 50%
Obs (% visual control) ([2]; Amicarbazone 300 g/ha alone): 20%
Obs (% visual control) ([3]; Amicarbazone 300 g/ha alone): 20%
Obs (% visual control) ([4]; Amicarbazone 300 g/ha alone): 30%
Obs (% visual control) ([5]; PAPRH, Amicarbazone 300 g/ha alone): 30%
Obs (% visual control) ([6]; Amicarbazone 300 g/ha alone): 50%
Obs (% visual control) ([7]; Amicarbazone 300 g/ha alone): 50%
Obs (% visual control) ([8]; Amicarbazone 300 g/ha alone): 60%
Obs (% visual control) ([9]; Amicarbazone 300 g/ha alone): 30%
Obs (% visual control) ([10]; Amicarbazone 300 g/ha alone): 50%
Obs (% visual control) ([11]; Amicarbazone 300 g/ha alone): 95%

CCC(C)n1c(=O)[nH]c(C)c(Br)c1=O (stereo not shown) [Bromacil, bromacil]
Obs (% visual control) ([1]; Bromacil 900 g/ha alone): 10%
Obs (% visual control) ([2]; Bromacil 900 g/ha alone): 10%
Obs (% visual control) ([3]; Bromacil 900 g/ha alone): 100%
Obs (% visual control) ([4]; Bromacil 900 g/ha alone): 30%
Obs (% visual control) ([5]; R-PAPRH, Bromacil 900 g/ha alone): 100%
Obs (% visual control) ([6]; Bromacil 900 g/ha alone): 30%
Obs (% visual control) ([7]; Bromacil 900 g/ha alone): 97%
Obs (% visual control) ([8]; Bromacil 900 g/ha alone): 65%
Obs (% visual control) ([9]; Bromacil 900 g/ha alone): 100%
Obs (% visual control) ([10]; Bromacil 900 g/ha alone): 65%
Obs (% visual control) ([11]; Bromacil 900 g/ha alone): 100%

Nc1c(F)c(-c2ccc3cc[nH]c3c2F)nc(C(=O)O)c1Cl [Compound 1]
Obs (% visual control) ([1]; Compound 1 5 g/ha alone): 10%
Obs (% visual control) ([1]; Compound 1 10 g/ha alone): 30%
Obs (% visual control) ([2]; Compound 1 5 g/ha alone): 70%
Obs (% visual control) ([2]; Compound 1 10 g/ha alone): 85%
Obs (% visual control) ([3]; Compound 1 5 g/ha alone): 65%
Obs (% visual control) ([3]; Compound 1 10 g/ha alone): 70%
Obs (% visual control) ([4]; Compound 1 5 g/ha alone): 10%
Obs (% visual control) ([4]; Compound 1 10 g/ha alone): 40%
Obs (% visual control) ([5]; PAPRH (R-PAPRH in Tables 1 and 6), Compound 1 5 g/ha alone): 75%
Obs (% visual control) ([5]; PAPRH (R-PAPRH in Tables 1 and 6), Compound 1 10 g/ha alone): 80%
Obs (% visual control) ([6]; Compound 1 5 g/ha alone): 75%
Obs (% visual control) ([6]; Compound 1 10 g/ha alone): 75%
Obs (% visual control) ([7]; Compound 1 5 g/ha alone): 50%
Obs (% visual control) ([7]; Compound 1 10 g/ha alone): 55%
Obs (% visual control) ([8]; Compound 1 5 g/ha alone): 40%
Obs (% visual control) ([8]; Compound 1 10 g/ha alone): 50%
Obs (% visual control) ([9]; Compound 1 5 g/ha alone): 10%
Obs (% visual control) ([9]; Compound 1 10 g/ha alone): 60%
Obs (% visual control) ([10]; Compound 1 5 g/ha alone): 65%
Obs (% visual control) ([10]; Compound 1 10 g/ha alone): 70%
Obs (% visual control) ([11]; Compound 1 5 g/ha alone): 10%
Obs (% visual control) ([11]; Compound 1 10 g/ha alone): 10%

CCOC(=O)Nc1cccc(OC(=O)Nc2ccccc2)c1 [Desmedipham, desmedipham]
Obs (% visual control) ([1]; Desmedipham 163 g/ha alone): 0%
Obs (% visual control) ([2]; Desmedipham 163 g/ha alone): 10%
Obs (% visual control) ([3]; Desmedipham 163 g/ha alone): 0%
Obs (% visual control) ([4]; Desmedipham 163 g/ha alone): 10%
Obs (% visual control) ([5]; PAPRH, Desmedipham 163 g/ha alone): 0%
Obs (% visual control) ([6]; Desmedipham 163 g/ha alone): 10%
Obs (% visual control) ([7]; Desmedipham 163 g/ha alone): 0%
Obs (% visual control) ([8]; Desmedipham 163 g/ha alone): 15%
Obs (% visual control) ([9]; Desmedipham 163 g/ha alone): 10%
Obs (% visual control) ([10]; Desmedipham 163 g/ha alone): 0%
Obs (% visual control) ([11]; Desmedipham 163 g/ha alone): 10%

CCC(=O)Nc1ccc(Cl)c(Cl)c1 [Propanil, propanil]
Obs (% visual control) ([1]; Propanil 840 g/ha alone): 10%
Obs (% visual control) ([2]; Propanil 840 g/ha alone): 10%
Obs (% visual control) ([3]; Propanil 840 g/ha alone): 0%
Obs (% visual control) ([4]; Propanil 840 g/ha alone): 50%
Obs (% visual control) ([5]; R-PAPRH, Propanil 840 g/ha alone): 20%
Obs (% visual control) ([6]; Propanil 840 g/ha alone): 10%
Obs (% visual control) ([7]; Propanil 840 g/ha alone): 10%
Obs (% visual control) ([8]; Propanil 840 g/ha alone): 10%
Obs (% visual control) ([9]; Propanil 840 g/ha alone): 0%
Obs (% visual control) ([10]; Propanil 840 g/ha alone): 50%
Obs (% visual control) ([11]; Propanil 840 g/ha alone): 10%

O=c1cc(Cl)[nH]nc1-c1ccccc1 [Pyridafol, pyridafol]
Obs (% visual control) ([1]; Pyridafol 195 g/ha alone): 0%
Obs (% visual control) ([2]; Pyridafol 195 g/ha alone): 0%
Obs (% visual control) ([3]; Pyridafol 195 g/ha alone): 0%
Obs (% visual control) ([4]; Pyridafol 195 g/ha alone): 0%
Obs (% visual control) ([5]; PAPRH, Pyridafol 195 g/ha alone): 0%
Obs (% visual control) ([6]; Pyridafol 195 g/ha alone): 0%
Obs (% visual control) ([7]; Pyridafol 195 g/ha alone): 0%
Obs (% visual control) ([8]; Pyridafol 195 g/ha alone): 5%
Obs (% visual control) ([9]; Pyridafol 195 g/ha alone): 10%
Obs (% visual control) ([10]; Pyridafol 195 g/ha alone): 0%
Obs (% visual control) ([11]; Pyridafol 195 g/ha alone): 0%

Cc1[nH]c(=O)n(C(C)(C)C)c(=O)c1Cl [Terbacil, terbacil]
Obs (% visual control) ([1]; Terbacil 113 g/ha alone): 30%
Obs (% visual control) ([2]; Terbacil 113 g/ha alone): 30%
Obs (% visual control) ([3]; Terbacil 113 g/ha alone): 10%
Obs (% visual control) ([4]; Terbacil 113 g/ha alone): 0%
Obs (% visual control) ([5]; PAPRH, Terbacil 113 g/ha alone): 10%
Obs (% visual control) ([6]; Terbacil 113 g/ha alone): 60%
Obs (% visual control) ([7]; Terbacil 113 g/ha alone): 0%
Obs (% visual control) ([8]; Terbacil 113 g/ha alone): 10%
Obs (% visual control) ([9]; Terbacil 113 g/ha alone): 10%
Obs (% visual control) ([10]; Terbacil 113 g/ha alone): 30%
Obs (% visual control) ([11]; Terbacil 113 g/ha alone): 60%
